Like-named read-outs stand apart in the source and are kept apart here. Positions of bridges follow the written chain, without caps; N, C: chain ends. Residues, ends and D or L forms follow the SMILES beside them.
Test: Phase II pharmacokinetic evaluation of subcutaneous Ostabolin-C (Baseline and Week 12 subset)
Format: in vivo, human
Details: human, blood; for Cmax: read-out: Cmax
Protocol: The objective of this portion of the study was to evaluate the pharmacokinetics of Ostabolin-C under steady state conditions when given subcutaneously (sc) once a day to post-menopausal female subjects with low bone mineral density.
After Screening procedures and a 2-week placebo run-in phase, subjects were to be dosed once a day for 16 weeks with either Placebo or Ostabolin-C (7.5, 15, 30 or 45 μg). A subset of subjects from all treatment groups had blood collected for measurements of Ostabolin-C in order to determine PK parameters and compare them to prior studies.
The full study duration of the study was 22 weeks, which included a 6-week screening period involving a 2-week placebo run-in and then 16 weeks of treatment. The subset of subjects for this component of the study was treated the same as all other subjects with the exception of the additional blood collections at baseline and Week 12.
All of the values from the Placebo subject except one (Baseline 2 hour time-point) were below the assay level of detection (i.e., 10 pg/ml). With very limited exceptions, all values from Placebo subjects in prior trials have also been below the levels of detection. Thus, this one value was considered to be a laboratory error and PK parameters for this placebo subject were not calculated.
No samples were obtained for Pre-dose at either Baseline or Week 12. In all prior studies, pre-treatment values have been below the levels of detection and 24-hour time points at doses of 40 ug and below have been below the levels of detection. Thus, no observable values were anticipated and for calculating PK the pre-treatment values for Baseline visit were set to zero.
For pre-dose at Week 12, it was also anticipated that the values would be below the levels of detection based on prior studies and that the 24-hour post dose value would verify this. Only two 24-hour time-point values were above the level of detection; i.e. 24 hours post dosing at Baseline for Subject 030-003 and 24 hours post dosing at Week 12 for Subject 030-0004. The values of both of these 24-hour time-points were marginally above the assay level of detection. Also, both of these subjects had values below the levels of detection for both the 4 hour and 6 hour time-points after dosing on the prior day. Thus, these values are most likely artifacts and not real values. No valid 24 hour sample for subject 032-0001 at Week 12 was obtained. […] Thus, for calculating PK parameters, the Pre-dose values for Week 12 were also set to zero.
The pharmacokinetic parameters that were estimated at Baseline and Week 12 are as follows:
AUC values were estimated by a simple summation of trapezoidal areas from each time period. Data from each dose group were summarized using simple statistics on an Excel® spreadsheet; i.e., average (AVG) and Standard Deviation (STD). It should be noted that particularly with the lower doses and associated low blood levels and at late time points, those values just above versus just below the assay limits of detection can have a disproportionate impact to AUC calculations. This adds to that variability of the calculated numbers.

SMILES: CC[C@H](C)[C@H](NC(=O)[C@H](CCC(=O)O)NC(=O)[C@H](CO)NC(=O)[C@@H](NC(=O)[C@@H](N)CO)C(C)C)C(=O)N[C@@H](CCC(N)=O)C(=O)N[C@@H](CC(C)C)C(=O)N[C@@H](CCSC)C(=O)N[C@@H](Cc1c[nH]cn1)C(=O)N[C@@H](CC(N)=O)C(=O)N[C@@H](CC(C)C)C(=O)NCC(=O)N[C@@H](CCCCN)C(=O)N[C@@H](Cc1c[nH]cn1)C(=O)N[C@@H](CC(C)C)C(=O)N[C@@H](CC(N)=O)C(=O)N[C@@H](CO)C(=O)N[C@@H](CCSC)C(=O)N[C@@H](CCC(=O)O)C(=O)N[C@@H](CCCN=C(N)N)C(=O)N[C@H](C(=O)N[C@H]1CCC(=O)NCCCC[C@@H](C(=O)N[C@@H](CC(C)C)C(=O)N[C@@H](CC(C)C)C(=O)N[C@@H](CCC(N)=O)C(=O)N[C@@H](CC(=O)O)C(=O)N[C@H](C(N)=O)C(C)C)NC(=O)[C@H](CCCN=C(N)N)NC(=O)[C@H](CC(C)C)NC(=O)[C@H](Cc2c[nH]c3ccccc23)NC1=O)C(C)C [Ostabolin-C, [Leu^27]cyclo[Glu^22-Lys^26]-PTH-(1-31)-NH2] (H-SVSEIQLMHNLGKHLNSMERVEWLRKLLQDV-NH2; lactam 22-26)
- AUC(0-t) (female, sc, 45 ug, Dose 45, mean of Baseline and Week 12 data, read-out: AUC(0-4)): 0.22 ng·h/mL
- AUC(0-t) (female, sc, 45 ug, Dose 45, mean of Baseline and Week 12 data, read-out: AUC(0-24)): 0.296 ng·h/mL
- Cmax (female, sc, 45 ug, Dose 45, mean of Baseline and Week 12 data): 0.12 ng/mL
- Tmax (female, sc, 45 ug, Dose 45, mean of Baseline and Week 12 data, read-out: Tmax): 22.8 min
- AUC(0-t) (female, sc, 45 ug, Week 12, 45 ug, AVG, read-out: AUC(0-4)): 0.0995 ng·h/mL
- AUC(0-t) (female, sc, 45 ug, Week 12, 45 ug, AVG, read-out: AUC(0-24)): 0.171 ng·h/mL
- Cmax (female, sc, 45 ug, Week 12, 45 ug, AVG): 0.0669 ng/mL
- Tmax (female, sc, 45 ug, Week 12, 45 ug, AVG, read-out: Tmax): 15 min
- Tmax (female, sc, all doses, Baseline and Week 12 (STD 0.21 hrs), read-out: Tmax, overall average): 20.4 min
- AUC(0-t) (female, subcutaneous, 7.5 ug, Baseline, 7.5 ug, AVG, read-out: AUC(0-4)): 0.0388 ng·h/mL
- AUC(0-t) (female, subcutaneous, 7.5 ug, Baseline, 7.5 ug, AVG, read-out: AUC(0-24)): 0.0425 ng·h/mL
- Cmax (female, subcutaneous, 7.5 ug, Baseline, 7.5 ug, AVG): 0.0272 ng/mL
- AUC(0-t) (female, subcutaneous, 15 ug, Baseline, 15 ug, AVG, read-out: AUC(0-4)): 0.0742 ng·h/mL
- AUC(0-t) (female, subcutaneous, 15 ug, Baseline, 15 ug, AVG, read-out: AUC(0-24)): 0.0742 ng·h/mL
- Cmax (female, subcutaneous, 15 ug, Baseline, 15 ug, AVG): 0.0449 ng/mL
- Tmax (female, subcutaneous, 15 μg, Dose 15, mean of Baseline and Week 12 data, read-out: Tmax): 19.8 min
- Tmax (female, subcutaneous, 15 ug, Week 12, 15 ug, AVG, read-out: Tmax): 19.8 min
- AUC(0-t) (female, subcutaneous, 45 ug, Baseline, 45 ug, AVG, read-out: AUC(0-4)): 0.341 ng·h/mL
- AUC(0-t) (female, subcutaneous, 45 ug, Baseline, 45 ug, AVG, read-out: AUC(0-24)): 0.42 ng·h/mL
- Cmax (female, subcutaneous, 45 ug, Baseline, 45 ug, AVG): 0.174 ng/mL
- Cmax (subcutaneous, 7.5 ug, Baseline, 7.5 ug, individual subjects): 0.0207 ng/mL
- Cmax (subcutaneous, 7.5 ug, Week 12, 7.5 ug, individual subjects): 0.021 ng/mL
- Tmax (subcutaneous, 7.5 ug, Week 12, 7.5 ug, individual subjects, read-out: Tmax): 15 min
- AUC(0-t) (subcutaneous, 15 ug, Baseline, 15 ug, individual subjects, read-out: AUC(0-4)): 0.066 ng·h/mL
- AUC(0-t) (subcutaneous, 15 ug, Baseline, 15 ug, individual subjects, read-out: AUC(0-24)): 0.066 ng·h/mL
- Cmax (subcutaneous, 15 ug, Baseline, 15 ug, individual subjects): 0.0306 ng/mL
- Tmax (subcutaneous, 15 ug, Baseline, 15 ug, individual subjects, read-out: Tmax): 30 min
- Tmax (subcutaneous, 15 ug, Week 12, 15 ug, individual subjects, read-out: Tmax): 15 min
- AUC(0-t) (subcutaneous, 30 ug, Baseline, 30 ug, individual subject, read-out: AUC(0-4)): 0.104 ng·h/mL
- AUC(0-t) (subcutaneous, 30 ug, Baseline, 30 ug, individual subject, read-out: AUC(0-24)): 0.104 ng·h/mL
- Cmax (subcutaneous, 30 ug, Baseline, 30 ug, individual subject): 0.0639 ng/mL
- Tmax (subcutaneous, 30 ug, Baseline, 30 ug, individual subject, read-out: Tmax): 30 min
- AUC(0-t) (subcutaneous, 30 ug, Week 12, 30 ug, individual subjects, read-out: AUC(0-24)): 0.154 ng·h/mL
- Cmax (subcutaneous, 30 ug, Week 12, 30 ug, individual subjects): 0.0762 ng/mL
- Tmax (subcutaneous, 30 ug, Week 12, 30 ug, individual subjects, read-out: Tmax): 15 min
- AUC(0-t) (subcutaneous, 45 ug, Baseline, 45 ug, individual subjects, read-out: AUC(0-4)): 0.337 ng·h/mL
- AUC(0-t) (subcutaneous, 45 ug, Baseline, 45 ug, individual subjects, read-out: AUC(0-24)): 0.47 ng·h/mL
- Tmax (subcutaneous, 45 ug, Baseline, 45 ug, individual subjects, read-out: Tmax): 30 min
- AUC(0-t) (subcutaneous, 45 ug, Week 12, 45 ug, individual subject, read-out: AUC(0-4)): 0.128 ng·h/mL
- AUC(0-t) (subcutaneous, 45 ug, Week 12, 45 ug, individual subject, read-out: AUC(0-24)): 0.128 ng·h/mL
- Cmax (subcutaneous, 45 ug, Week 12, 45 ug, individual subject): 0.0871 ng/mL
- Tmax (subcutaneous, 45 ug, Week 12, 45 ug, individual subject, read-out: Tmax): 15 min

— patent publication US20080176787A1, “Parathyroid hormone analogues and methods of use” (priority 2005, published 2008)
